{"source": "ChEMBL document CHEMBL1151387", "about": "“Constitutents of Magnolia Grandiflora. III. Toxic principle of the wood” (J Nat Prod, 1982)", "key": {"[1]": {"assay": "Toxicity in iv dosed mouse", "format": "organism-based", "settings": "in vivo"}, "[2]": {"assay": "Toxicity in ip dosed mouse", "format": "organism-based", "settings": "in vivo"}, "Mus musculus [3]": {"tested_on": "Mus musculus", "assay": "Toxicity in ip dosed mouse assessed as labored breathing and depression at LD50", "format": "organism-based", "settings": "in vivo"}, "Mus musculus [4]": {"tested_on": "Mus musculus", "assay": "Effect on behavioral activity in ip dosed mouse assessed as occurrence of mydriasis for 30 mins", "format": "functional, organism-based"}, "Mus musculus [5]": {"tested_on": "Mus musculus", "assay": "Toxicity in ip dosed mouse assessed as death at LD50", "format": "organism-based", "settings": "in vivo"}}, "note": "Active and inactive are the calls of the source. The calls are words filed in the database; no cut-off is given here."}
{"compound": "COc1ccc2c(c1O)-c1c(OC)c(OC)cc3c1[C@H](C2)[N+](C)(C)CC3.[Cl-]", "values": [{"measurement": "LD50", "setting": "[1]", "value": 2.2, "unit": "mg/kg"}]}
{"compound": "COc1ccc2c(c1O)-c1c(OC)c(OC)cc3c1[C@H](C2)[N+](C)(C)CC3.[I-]", "values": [{"measurement": "LD50", "setting": "[2]", "value": 10, "unit": "mg/kg"}]}
{"compound": "COc1ccc2c(c1O)-c1c(O)c(OC)cc3c1[C@H](C2)[N+](C)(C)CC3", "note": "[MAGNOFLORINE]", "values": [{"measurement": "LD50", "setting": "[2]", "value": 19.6, "unit": "mg/kg"}, {"measurement": "Activity", "setting": "Mus musculus [3]", "value": 5, "unit": "min"}, {"measurement": "Activity", "setting": "Mus musculus [4]", "value": "Active"}, {"measurement": "Activity", "setting": "Mus musculus [5]", "value": 15, "unit": "min"}]}
